Columns and labels:
[1] = system: FGFR1 phosphorylation in HUVECs; assay: FGFR1 phosphorylation in FGF8b-stimulated HUVECs (immunofluorescence); assay type: cell-based, human; conditions: 30 ng/ml FGF8b, 60 μM peptide
Procedure: HUVECs were seeded in Ibidi® μ-Slide 8 wells (Ibidi, Martinsried, Germany, EU) at a density of 30000 cells/cm^2, starved in 2.5% FBS for 24 h and stimulated for 20 minutes with 30 ng/ml of FGF8b in the absence or presence of ARPCA or ARPVA. Following stimulation, cells were washed twice in PBS, fixed in cold acetone for 5 minutes and permeabilized with 0.2% Triton-X100 in PBS for 2 minutes at room temperature (RT). After washing in PBS, cells were blocked for 10 minutes at RT in 1% BSA and then incubated with rabbit anti-pFGFR1 or rabbit anti-FGFR1 antibodies (Santa Cruz Biotechnology) for 1 h at RT. After washing in PBS, cells were incubated with AlexaFluor 594-conjugated anti-rabbit antibody (Invitrogen) and DAPI for 30 minutes at RT. Finally, cells were examined under a Zeiss Fluorescence Axiovert 200M microscope (Carl Zeiss).

[2] = system: TRAMP-C2 tumor grafts; assay: In vivo tumor therapy study, TRAMP-C2 tumors; parameters: species or system C57BL/6 male mice; conditions: s.c. TRAMP-C2 cells, i.p. 100 mg/kg every other day
Procedure: (§1) Eight week old C57BL/6 male mice were injected s.c. with 8×10^6 TRAMP-C2 cells, and eight week old athymic Nu/Nu male mice were injected s.c. with 5×10^6 S115 cells. All injections were performed in 200 μl total volume of PBS into the dorsolateral flank. When tumors were palpable treatment was performed every other day by i.p. injection of ARPCA, ARPVA (both at 100 mg/kg) or vehicle (PBS) in 100 μl final volume. Tumors were measured in two dimensions and tumor volume was calculated according to the formula V=(D × d^2)/2, where D and d are the major and minor perpendicular tumor diameters, respectively. At the end of the experimental procedure tumors were harvested, weighted and photographed.

[3] = system: S115 tumors; assay: In vivo tumor therapy study, S115 tumors; parameters: species or system athymic Nu/Nu male mice; conditions: s.c. S115 cells, i.p. 100 mg/kg every other day starting at day 8, followed for the next 32 days
Procedure: as §1

[4] = system: chick embryo chorioallantoic membrane (CAM); assay: Chick embryo CAM assay with growth factor alginate implants; assay type: in vivo; conditions: vessels counted at day 14
Procedure: Alginate plugs containing vehicle, FGF8b (4.5 pmoles/embryo), VEGF-A (4.5 pmoles/embryo) or S115 cells (2.5×10^4/embryo) in the absence or presence of ARPCA (80 or 140 pmoles/embryo) or ARPVA (140 pmoles/embryo) were placed on the CAM of fertilized white leghorn chicken eggs at day 11 of incubation. At day 14, newly formed blood microvessels converging toward the implant were counted by two observers in a double-blind fashion at 5x magnification under a stereomicroscope (STEMI-SR, x2/0.12; Zeiss) as described.

[5] = system: S115 cells; assay: S115 cell proliferation assay; assay type: cell-based, mouse; conditions: 30 ng/ml FGF8b or 10 nM DHT, 48 h, viable cell counting
Procedure: HUVECs were seeded at 18000 cells/cm^2 in medium containing 2.5% FBS and stimulated with 30 ng/ml FGF8b in the absence or presence of increasing concentrations of ARPCA or ARPVA. S115 cells were seeded at 15000 cells/cm^2 in medium containing 4% hormone-deprived dextran-coated charcoal-stripped heat inactivated FBS, followed by 24 h serum starvation in 1:1 mixture of serum-free Ham's F12 and DMEM. Cells were stimulated for 48 h with 30 ng/ml FGF8b or 10 nM DHT in the presence or absence of different concentrations of ARPCA or ARPVA (as specified in the corresponding figures). Viable cell counts were obtained by the counting function of the MACSQuant® Analyzer (Miltenyi Biotec, Bergisch-Gladbach, Germany, EU).

[6] = system: HUVEC spheroids; assay: Endothelial cell sprouting assay (HUVEC spheroids in fibrin gel); assay type: cell-based, human; conditions: 60 μM peptide, 24 h
Procedure: HUVEC spheroid aggregates were prepared in 20% methylcellulose medium, embedded in fibrin gel, and stimulated with FGF8b or VEGF-A (both at 30 ng/ml) plus 5% FBS in the absence or presence of 60 μM ARPCA or ARPVA. Formation of radially growing cell sprouts was observed during the next 24 h, photographed at 200x magnification using an Axiovert 200M microscope (Carl Zeiss, Milan, Italy, EU) and counted.

[7] = system: FGFR1 phosphorylation and ERK1/2 activation in S115 cells; assay: Western blot of FGF8b-treated S115 cells; assay type: cell-based, mouse; conditions: 30 ng/ml FGF8b, 100 μM peptide, 20 minutes
Procedure: S115 cells were treated with FGF8b (30ng/ml) in the presence or absence of ARPCA (100 μM) or ARPVA (100 μM). After 20 minutes of incubation cell samples were washed in cold PBS and homogenized in RIPA buffer containing 1% Triton-X100, 0.2% BriJ, 1 mM sodium orthovanadate and protease inhibitors cocktail. Protein concentrations were determined using the Bradford protein assay (Bio-Rad Laboratories, Milano, Italy). Blotting analysis was performed using anti-FGFR1, anti-phospho FGFR1 and anti-phosphoERK1/2 antibodies (Santa Cruz Biotechnology, Santa Cruz, CA, USA). Equal loading of the lanes was confirmed by immunoblotting with anti–αTubulin (Sigma-Aldrich) antibody.

[8] = biological target: T1, FGF8b (Homo sapiens, UniProt P55075); assay: ARPCA-FGF8 interaction by 2D 1H-13C HSQC NMR titration; assay type: binding; parameters: purchased ASLA (Riga, Latvia); conditions: 190 μM ARPCA, FGF8b:ARPCA 0.5:1 and 1:1, intermediate to fast exchange
T1 sequence (P55075 23-215 isoform P55075-3 limits assumed): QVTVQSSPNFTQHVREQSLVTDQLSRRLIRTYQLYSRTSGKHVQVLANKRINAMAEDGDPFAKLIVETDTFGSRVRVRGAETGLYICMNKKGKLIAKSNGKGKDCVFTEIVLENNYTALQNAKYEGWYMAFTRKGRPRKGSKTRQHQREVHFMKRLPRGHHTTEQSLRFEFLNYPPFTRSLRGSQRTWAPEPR
Procedure: NMR experiments were collected on samples containing 190 μM of ARPCA, dissolved in 50 mM potassium phosphate buffer pH 6.7 (90% H2O/10% D2O), 2.5 mM arginine, 10mM NaCl in the presence of variable concentrations of FGF8 corresponding to 1:0, 1:0.5, and 1:1 ARPCA:FGF8 ratios.
2D 1H-13C HSQC spectra were recorded with a sweep width of 10 ppm and 100 ppm.2k × 128 data points were used in proton and carbon dimensions, respectively. Data, acquired and processed using Topspin (Bruker Biospin), were apodized with a squared sinebell shifted by 90° and polynomial baseline correction. All NMR spectra were recorded at 298 K with a Bruker DMX spectrometer operating at 600 MHz.

## Ac-ARPCA-NH2 [ARPCA, Ac-ARPCA-NH2]
[1]
  FGFR1 phosphorylation triggered by FGF8b in HUVECs: efficiently impairs FGFR1 phosphorylation
[2]
  growth of TRAMP-C2 tumor grafts, long-term assay: inhibited the growth of TRAMP-C2 tumor grafts
[3]
  S115 tumor growth, long-term experiment: suppresses S115 tumor growth
[4]; 4.5 pmoles FGF8b/plug, ARPCA 80 or 140 pmoles, ARPVA 140 pmoles
  angiogenic response elicited by FGF8b in the CAM: significantly reduced
[4]; 4.5 pmoles VEGF-A/plug
  angiogenic response elicited by VEGF-A in the CAM: No inhibitory effect
[5]
  mitogenic response of S115 cells to FGF8b or DHT: impairs the mitogenic response
[6]; 30 ng/ml FGF8b
  sprouting activity exerted by FGF8b on HUVEC spheroids: specifically prevents the pro-angiogenic/sprouting activity
[6]; 30 ng/ml VEGF-A
  effect on the angiogenic potential of VEGF-A on HUVEC spheroids: no effect
[7]
  FGFR1 phosphorylation in S115 cells treated with FGF8b: inhibits FGFR1 phosphorylation
  MAPK ERK1/2 activation in S115 cells treated with FGF8b: inhibits
[8]
  binding to FGF8b indicated by NMR titration: micromolar range
